According to ChEMBL document CHEMBL3507680, “University of Dundee, Gates Library screen for HepG2 cell viability”:

Assay: Human HepG2 cell viability assay in 384 well format
Type: toxicity, cell-based
Parameters: dose 125 nL, time 70.5 hour; concentration not given beside the values
Conditions: HepG2 cells, read-out: Inhibition
Work on `Cc1nc(C)c(COc2ccc(S(=O)(=O)N(C)C)cc2)s1` yielded a cytotoxicity at 70.5 h of -22.5%. Compound `Cn1cccc1CNCC1CCCn2cc(C(C)(C)C)nc21` (centres undefined) has a cytotoxicity at 70.5 h of 5.68%. With `CC(=O)N(Cc1ncc(C)o1)C1CCN(Cc2ccccc2C#N)C1` (centres undefined) the cytotoxicity at 70.5 h was -3.02%. `CCN(C)C(=O)c1cc(-c2ccn(C(C)C)n2)n2ccccc12` showed a cytotoxicity at 70.5 h of -3.51%. `COCCNC(=O)NCCCOC1CCCc2ccccc21` (centres undefined) showed a cytotoxicity at 70.5 h of 1.91%. `CCC(=O)Nc1ccc(OCC(=O)N(C)C(C)c2ccon2)cc1` (centres undefined) showed a cytotoxicity at 70.5 h of -18.6%. `Cc1cccc(CN2C[C@@H]3COC[C@]3(CNC(=O)c3ccccc3)C2)n1` gave a cytotoxicity at 70.5 h of -12.2%. For `CCC1CN(C(=O)c2cccc(O)c2)CCC(=O)N1Cc1ccccc1` (centres undefined), the cytotoxicity at 70.5 h was 0.303%. In the case of `COCC(O)CNC(=O)c1coc(COc2ccc3sc(C)nc3c2)n1` (centres undefined), the cytotoxicity at 70.5 h is reported as -9.49%. With `CCC[C@@H]1CN(C(=O)c2cc(-c3cccs3)n(C)n2)C[C@H]1N(C)C` the cytotoxicity at 70.5 h was -8.43%. For `Cc1noc(C)c1CNc1ccc2nc(C3CC3)sc2c1`, the cytotoxicity at 70.5 h was -1.96%. `CCCS(=O)(=O)N1CCCC1c1cccc(N(C)C)c1` (centres undefined) gave a cytotoxicity at 70.5 h of -11.2%. `O=C(NCCN1CCOCC1)C1=NOC2(CCN(Cc3nccs3)C2)C1` (centres undefined) gave a cytotoxicity at 70.5 h of -17.4%. For `CC(C)c1nnc2n1CCN(Cc1csc(-c3cnn(C)c3)n1)C2`, the cytotoxicity at 70.5 h was -2.14%. In the case of `Cc1cnn(CC(C)NCc2nc(-c3ccco3)no2)c1` (centres undefined), the cytotoxicity at 70.5 h is reported as 2.25%. `CN1CC2(CCCN(Cc3ccc(Oc4ccccc4)cc3)C2)OC1=O` (centres undefined) gave a cytotoxicity at 70.5 h of 16.8%. `CC(C)=CCN1C[C@@H](C(=O)O)C[C@H](C(=O)Nc2ccc(C)nc2)C1` gave a cytotoxicity at 70.5 h of -8.07%. Work on `Cn1ccc(C(=O)N2CCN(CCc3ccccc3)CC2)cc1=O` yielded a cytotoxicity at 70.5 h of -1.11%. `Cc1ccc(C(=O)N2CCN(c3ncnc4nc(N)ccc34)CC2)o1` showed a cytotoxicity at 70.5 h of -7.65%. With `Cc1nc(C)c(C(=O)N2CCc3nnc(C4CCCCN4C)n3CC2)s1` (centres undefined) the cytotoxicity at 70.5 h was -8.99%. With `Cc1ccc(CC(=O)N2CCCC(n3nc(C)cc3C)C2)cn1` (centres undefined) the cytotoxicity at 70.5 h was -9.71%. For `CCN1CC(CN(C)Cc2nc(-c3ccc(F)cc3F)oc2C)CC1=O` (centres undefined), the cytotoxicity at 70.5 h was 2.47%. For `CCCc1n[nH]c(C2CN(C(=O)c3n[nH]c4ccccc34)CCO2)n1` (centres undefined), the cytotoxicity at 70.5 h was -6.7%. `Cc1cccc(S(=O)(=O)N2C[C@@H]3OCCN(C(C)C)[C@@H]3C2)c1` gave a cytotoxicity at 70.5 h of -6.06%. With `CCOCCCn1c(NC(=O)c2cc(C)no2)nc2ccccc21` the cytotoxicity at 70.5 h was 2.27%. Work on `CCCN1CCCC(O)(c2nc(C)c(COc3ccccc3)s2)CC1` (centres undefined) yielded a cytotoxicity at 70.5 h of 13.4%. In the case of `CN(C)c1cccc(C2CCCN2CCCN2CCOC2=O)c1` (centres undefined), the cytotoxicity at 70.5 h is reported as 7.84%. With `CSCCC(=O)N1CCCN(Cc2cnn(C(C)C)c2)CC1` the cytotoxicity at 70.5 h was 34.5%. In the case of `NC(=O)C1CCN(C(=O)c2ccn(-c3cccc(F)c3)n2)C1` (centres undefined), the cytotoxicity at 70.5 h is reported as -19.8%. `CCc1nnc2n1CCN(Cc1csc(-c3ccc(C)o3)n1)C2` gave a cytotoxicity at 70.5 h of -33.2%. Work on `COC[C@@]12CCO[C@@H]1CCN(C(=O)Cc1ccccc1C)C2` yielded a cytotoxicity at 70.5 h of -3.36%. In the case of `CC1CCN(C)c2ccccc2N1C(=O)c1ccc(=O)n(C)n1` (centres undefined), the cytotoxicity at 70.5 h is reported as -5.36%. `CC(=O)c1nn(-c2cccc(Cl)c2)c(C)c1C(C)=O` showed a cytotoxicity at 70.5 h of -12.9%. With `CNS(=O)(=O)c1ccc(CNC(=O)N(C)CC(O)COC)cc1` (centres undefined) the cytotoxicity at 70.5 h was -74.7%. `COC1CCN(C(=O)CCn2ccc(=O)[nH]c2=O)CC1` showed a cytotoxicity at 70.5 h of 8.52%. With `Cc1ccsc1CN(CCCO)Cc1nc2ccccc2[nH]1` the cytotoxicity at 70.5 h was -1.23%. `CNC(=O)c1cccc(CCNS(C)(=O)=O)c1` showed a cytotoxicity at 70.5 h of -2.35%. For `O=C(C[C@H]1[C@H]2CN(C(=O)Cc3ccccn3)C[C@@H]12)Nc1cccnc1`, the cytotoxicity at 70.5 h was -1.03%. Work on `COc1cccc(C2CCCN2C(=O)CC2=CSC3=NCCCN23)c1` (centres undefined) yielded a cytotoxicity at 70.5 h of -12%. Work on `CCCc1nnc(N2CCC3(CC2)CN(C)C(=O)O3)o1` yielded a cytotoxicity at 70.5 h of 2.82%. With `COCC(=O)NCc1cc2n(n1)CCCN(Cc1ccccc1SC)C2` the cytotoxicity at 70.5 h was -6.55%. In the case of `Cc1cnc(Nc2nccnc2C2CCN(C)CC2)s1`, the cytotoxicity at 70.5 h is reported as -19.6%. Compound `COc1ccccc1OCC(=O)N1CCN(Cc2noc(C)n2)CC1` has a cytotoxicity at 70.5 h of -10.6%. `Cc1ccc(NC(=O)N2CC[C@@H](O)C2)c(-c2nc(C3CC3)no2)c1` showed a cytotoxicity at 70.5 h of -3.95%.
